Assay [1] deals with SCID mice transplanted with small cell lung cancer cells H446. The assay can be described thus: Cachexia in SCID mice bearing metastatic H446 tumors. The class given is in vivo. The following applies: daily oral dose 3 mg/kg or 10 mg/kg, versus vehicle only (FIG. 3). As to the method: FIGS. 1-5 comprise charts or graphs disclosing the results of tests obtained with experimental animals that have been inoculated with a xenograft of non-small cell lung cancer cells H292 or with small cell lung cancer cells H446, and which were then orally administered the RXR agonist Compound 1 referred to above.
In the experiment shown in FIG. 3, SCID mice were subcutaneously transplanted with small cell lung cancer cells H446. A first group of the animals was given a daily oral dose of 3 mg per kilogram body weight of Compound 1 in a suitable pharmaceutically acceptable vehicle, and a second group was given a daily oral dose of 10 mg per kilogram body weight in the same vehicle. A group of the control animals was given the vehicle only.

Assay [2] has as its system nude mice bearing H292 xenografts (non-small cell lung cancer cells H292). The assay can be described thus: Cachexia in nude mice bearing H292 xenografts. The class given is in vivo. The note with it: for body weight of the animals: s.c. H292 xenograft. The text has this: FIGS. 1-5 comprise charts or graphs disclosing the results of tests obtained with experimental animals that have been inoculated with a xenograft of non-small cell lung cancer cells H292 or with small cell lung cancer cells H446, and which were then orally administered the RXR agonist Compound 1 referred to above. […]
Specifically, in the experiment shown in FIG. 1 nude mice were subcutaneously transplanted with non-small cell lung cancer cells H292. A group of the animals was given a daily oral dose of 10 mg per kilogram body weight of Compound 1 in a suitable pharmaceutically acceptable vehicle. A group of the control animals was given the vehicle only.
In the experiment shown in FIG. 4 the right gastrocnemius muscle of the control animals and of the animals treated with Compound 1 in a daily dose of 10 mg/kg, as described in connection with FIG. 1, was weighed after the animals had been sacrificed.
In the experiment shown in FIG. 5, the food intake of nude mice with and without H292 xenografts was evaluated. Mice with H292 xenografts had reduced appetite compared with normal control. […] Therefore, adminstration of Compound 1 reverses poor appetite in cachectic animals. […]

In assay [3] the test system is AIDS and cancer patients. The note with it: cited from earlier work.
The mark [4] stands for this setting: patients, J. Clin. Oncol., 20: 567 (2002).
Where [5] appears, read: AIDS as well as cancer patients, literature.

Structures are written as SMILES.

On to `CC(/C=C/[C@@H]1C[C@]1(C)c1ccc2c(c1)C(C)(C)CCC2(C)C)=C\C(=O)O` [Compound 1], for which the “body weight of the animals” value in assay [1] is given as “significantly greater body weights”; in assay [2] (nude mice, daily oral dose 10 mg/kg, versus vehicle only (FIG. 1)) it was “significantly greater body weights”. Also, in assay [2] (H292 xenograft mice, 62 days after transplantation, daily dose 10 mg/kg, versus control (FIG. 4)), the “weight of the right gastrocnemius muscle” value is “prevents muscle wasting”. In addition, the average food intake result in assay [2] (nude mice with H292 xenografts, daily dose 10 mg/kg, compared with normal mice (FIG. 5)) was “equal amount of food intake as normal mice”. In addition, in assay [2] (nude mice, H292 xenograft, daily oral dose 10 mg/kg, versus vehicle (FIG. 2)), the percentage of survival result is reported as “significantly better survival rate”.
Turning to `CCC[C@]1(c2ccc3c(c2)C(C)(C)CCC3(C)C)C[C@H]1/C=C/C(C)=C/C(=O)O` [Compound 2], the average food intake entry in assay [2] (nude mice bearing H292 xenografts, daily dose 50 mg/kg, versus vehicle (FIG. 7)) is given as “significantly larger food intake”. Further, the “body weight of the animals” value in assay [2] (nude mice, daily oral dose 50 mg/kg, versus vehicle only (FIG. 6)) is listed as “significantly greater body weights”.
With `CCCCCc1cc(O)c2c(c1)OC(C)(C)[C@@H]1CCC(C)=C[C@@H]21` [Dronabinol], in assay [3] (setting [4]), the appetite entry is “improved appetite”; the “mood and body weight improvement” value is “no effect”.
As for `CC(=O)O[C@]1(C(C)=O)CC[C@H]2[C@@H]3C=C(C)C4=CC(=O)CC[C@]4(C)[C@H]3CC[C@@]21C` [Megestrol acetate], in assay [3] (setting [5]), the body weight gain result was “at least five pounds” and the “primary body component that increased” value is “fat, but not lean body mass”.
Consider `C[C@]12COC(=O)C[C@@H]1CC[C@@H]1[C@@H]2CC[C@@]2(C)[C@H]1CC[C@]2(C)O` [Oxandrolone], for which the body weight result in assay [3] (patients, literature, for Oxandrolone might have represented primary edema) is listed as “moderate increase of body weight”.

The values are drawn from US20070185055A1, “Method for treating cachexia with retinoid ligands” (priority 2006, published 2007).
